Several values for one entry are separate records, joined by “and”; a condition that tells them apart may be missing. Identical values can stand only once. Marks after values point to notes of the source that are not given here.
Legend:
[1] = test system: E. faecalis (V583-derivative strain, WT); assay type: cell-based, Enterococcus faecalis; conditions: 6 μl droplets on a lawn of E. faecalis, BHI 0.75% agar, overnight; representative of three independent experiments
[2] = test system: EfΔbacA cells (pIL252 empty vector); assay: spot assay on bacA-deleted strain; assay type: cell-based, Enterococcus faecalis; conditions: spot on BHI agar
[3] = test system: E. faecalis EfΔbacA cells expressing catalytically inactive variants of BacAef (E20A, S26A, R172A); assay: spot-on-lawn assay, catalytic site mutants; assay type: cell-based, Enterococcus faecalis
L. lactis IL1403 = assay: spot-on-lawn antibacterial assay, L. lactis; assay type: cell-based, Lactococcus lactis; conditions: 6 μl droplets, L. lactis IL1403, M17G agar, overnight
BacAef [4] = biological target: T1, BacAef (Enterococcus faecalis, UniProt A0ACD6TE02); assay: UppS-coupled C55-PP phosphatase assay in liposomes, BacAef; assay type: biochemical; conditions: DOPC:DOPG:DOPE liposomes, 20 mM HEPES pH 7.5, 37 °C, 10 min, TLC
Experimental: The reconstitution of BacA and PgpB in liposomes was achieved through adapted protocols previously described ([48]). Liposomes were prepared by rehydrating a lipid film of DOPC: DOPG: DOPE (3 mg: 0.75 mg: 1.25 mg) after 4 h of desiccation by adding 1 ml of buffer (20 mM HEPES, pH 7.5, 50 mM NaCl, 15% glycerol). […] The lipid suspension underwent 10 freeze-thaw cycles in liquid nitrogen and was extruded through a 100 nm polycarbonate membrane (Millipore). Protein reconstitution was performed by destabilizing the liposomes with 5.5 mM Triton X-100 for 15 min. The protein was added at a final concentration of 15 μg/ml and the mixture was incubated at 4 °C for 15 min.
The liposomes were used to measure the C55-PP phosphatase activity of BacA in a membrane environment as follows. For each kinetic assay, 5 μl of a reaction mixture containing 20 μM C15-PP, 20 μM [^14C]C5-PP, 180 μM C5-PP in 20 mM HEPES, pH 7.5, 50 mM NaCl, and 15% glycerol were mixed with 5 μl of protein-free liposomes (as a control) or BacA-containing liposomes. The mixture was then supplemented with UppS at a final concentration of 0.2 mg/ml to initiate the enzymatic synthesis of C55-PP. The EntC peptides were added at various concentrations from a water solution. […] Substrates and products were separated and quantified by thin-layer chromatography as previously described for C55-PP phosphatase assay in detergent.

[5] = liposome permeabilisation assay (BCECF), protein-free; assay type: biochemical; conditions: 5 μM EntC, internal pH 8, external pH 6
PgpB-liposomes = assay: proteoliposome permeabilisation assay (BCECF), PgpB-liposomes; assay type: biochemical, Escherichia coli; conditions: EntC
BacAef [6] = biological target: T1, BacAef; assay: DSS crosslinking; assay type: binding; conditions: BacAef and peptide 17 μM each, DSS 100- or 1000-fold excess, 30 min, 4 °C
Experimental: Crosslinking experiments were performed using the amine-reactive, membrane-permeable, and non-cleavable crosslinker disuccinimidyl suberate (DSS) purchased from Sigma. EntC peptides and BacA protein were mixed at equimolar concentrations (17 μM) in buffer D in the presence of an excess of DSS crosslinker (1000-fold or 100-fold) in a final reaction volume of 20 μl. The reaction was incubated for 30 min at 4°C, and any unreacted DSS was quenched with 50 mM Tris-HCl. After separation on a 12% acrylamide gel, proteins were electrotransferred onto polyvinylidene difluoride (PVDF) membrane, and BacA was detected using peroxidase-coupled anti-His tag antibody (Penta-His HRP conjugate from Qiagen, RRID: AB_3699318) by chemiluminescence detection (Western Lightning Plus-ECL, PerkinElmer) using the ChemiDoc MP system (Bio-Rad).

BacAef E20A = BacAef E20A (Enterococcus faecalis, UniProt A0ACD6TE02, E32A); assay: ITC, BacAef E20A; assay type: binding; conditions: 20 °C
Experimental: (§1) The experiments were carried out at 20 °C.

BacAef S26A = BacAef S26A (Enterococcus faecalis, UniProt A0ACD6TE02, S38A); assay: ITC, BacAef S26A; assay type: binding; conditions: 20 °C
Experimental: as §1

BacAef [7] = biological target: T1, BacAef; assay type: binding; conditions: DSC, BacAef 33 μM + peptides 66 μM, 60 °C/h, representative of triplicate
Experimental: Thermal stability of BacA protein in different mixtures of peptides was performed by DSC on a MicroCal model VP-DSC (Malvern Panalytical, Malvern, UK). BacA (33 μM) was mixed with different mixtures of peptides at twice the BacA concentration (i.e. 66 μM). Each measurement was preceded by a baseline scan with the standard buffer. Scans were performed at 1 K/min (60 °C/h) temperature ramp between 30 °C and 100 °C. The heat capacity of the buffer was subtracted from that of the protein sample before analysis. The thermodynamic parameters were determined by fitting the data to the following equation: ΔCp(T)=Kd(T)ΔHcalΔHvH/[1+Kd(T)]^2RT^2 where Kd is the equilibrium constant for a two-state process, ΔHvH the enthalpy calculated based on a two-state process and ΔHcal the measured enthalpy.

[8] = test system: E. faecalis EfΔbacA cells expressing BacAef; assay: survival test; assay type: cell-based, Enterococcus faecalis; conditions: 0.5 μM EntC, 30 min
[9] = test system: E. faecalis EfΔbacA cells expressing BacAef S26A; assay: survival test; assay type: cell-based, Enterococcus faecalis; conditions: 0.5 μM EntC, 30 min, 37 °C, p ≤ 0.01, three experiments
[10] = test system: E. faecalis EfΔbacA cells expressing BacAef R172A; assay: survival test; assay type: cell-based, Enterococcus faecalis; conditions: 0.5 μM EntC, 30 min, 37 °C, p ≤ 0.0001, three experiments
[11] = test system: E. faecalis EfΔbacA cells expressing BacAef D110A; assay: survival test; assay type: cell-based, Enterococcus faecalis; conditions: 0.5 μM EntC, 30 min, 37 °C, three experiments
[12] = test system: E. faecalis EfΔbacA cells expressing BacAef K209A; assay: survival test; assay type: cell-based, Enterococcus faecalis; conditions: 0.5 μM EntC, 30 min, 37 °C, p ≤ 0.0001, three experiments
[13] = test system: E. faecalis EfΔbacA cells expressing BacAef K209A D110A; assay: survival test; assay type: cell-based, Enterococcus faecalis; conditions: 0.5 μM EntC, 30 min, 37 °C, p ≤ 0.001, three experiments
BacAec [14] = biological target: T2, BacAec (Escherichia coli, UniProt P60932); conditions: DDM micelles
Experimental: The C55-PP phosphatase assays were performed in a 10-μl reaction mixture containing 20 mM Tris-HCl, pH 7.4, 400 μM CaCl2, 150 mM NaCl, 0.1% (w/v) DDM and 50 μM radiolabeled [^14C]C55-PP (900 Bq). The BacA concentration was adjusted in order to achieve less than 30% substrate hydrolysis. The mixture was incubated for 10 min at 37 °C, and the reaction was stopped by freezing in liquid nitrogen. Substrates and products were separated by thin-layer chromatography on precoated silica gel 60 plates (Merck) using 1-propanol/ammonium hydroxide/water (6:3:1, v/v/v) as the mobile phase. Radioactive spots were located and quantified using a radioactivity scanner (model Multi-Tracermaster LB285, Berthold-France). When the phosphatase activity was tested at different pH values, the following buffers were used at 20 mM: sodium acetate (pH 4–7) or Tris-HCl (pH 7–8). In the EDTA assay, the protein was pre-treated with 200 μM EDTA. For pH and EDTA assays, CaCl2 was omitted from the reaction buffer.

BacAef-liposomes = conditions: 5 μM EntC, internal pH 8, external pH 6, peptide:lipid c.a. 1:1300, without EntC 1.10^-4 sec^-1
BacAec [15] = biological target: T2, BacAec; conditions: titration of EntC into BacAec
Experimental: ITC experiments were performed with an ITC200 isothermal titration calorimeter from MicroCal (Malvern Panalytical, Malvern, UK). The experiments were carried out at 20 °C. The protein concentration in the microcalorimeter cell (0.2 ml) was 33 μM. Nineteen 2-μl injections of peptides at 400 μM were performed at intervals of 240 s while stirring at 500 rpm. To limit buffer mismatching effect between the cell and the syringe, and the heat-of-dilution effect for having glycerol in the protein solution, the latter were extensively dialyzed, prior to the ITC measurement, in a buffer containing 20 mM Tris-HCl pH 7.4, 200 mM NaCl, 0.1% DDM, to remove glycerol. Then, the dialysis buffer was used to dilute the EntC peptides to further limit buffer mismatching. The experimental data were fitted to theoretical titration curves with the software supplied by MicroCal (ORIGIN). This software uses the relationship between the heat generated by each injection and ΔH (enthalpy change in kcal/mol), Ka (the association binding constant in M^−1), n (the number of binding sites), total protein concentration and free and total ligand concentrations.

E. faecalis = conditions: ref [17]; cited from earlier work

T2 sequence (P60932 whole entry): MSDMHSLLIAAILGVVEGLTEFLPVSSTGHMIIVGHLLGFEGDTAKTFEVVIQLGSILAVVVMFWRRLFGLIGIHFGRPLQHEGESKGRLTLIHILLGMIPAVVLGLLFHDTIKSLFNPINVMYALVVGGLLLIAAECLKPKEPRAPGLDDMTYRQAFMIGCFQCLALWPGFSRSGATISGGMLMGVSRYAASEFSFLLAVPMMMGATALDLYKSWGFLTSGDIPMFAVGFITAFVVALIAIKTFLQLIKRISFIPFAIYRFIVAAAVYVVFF

In the case of Enterocin C [EntC], the “antibacterial activity (spot-on-lawn), E. faecalis” value [1] is reported as “E. faecalis was only susceptible to EntC”, the “susceptibility of EfΔbacA strain” value [2] is reported as “full resistance” and the “susceptibility of EfΔbacA expressing catalytic site mutant alleles” value [3] is reported as “restored with a plasmid expressing wild-type bacAef or any of the three catalytic site mutant alleles, although a slight decrease of the susceptibility was observed with R172A variant”. The “antibacterial activity (spot-on-lawn), L. lactis” value (L. lactis IL1403) was “sensitivity to both bacteriocins”, the IC50 (BacAef [4]) was 1200 ± 100 nM and the “membrane permeabilization of protein-free liposomes” value [5] was “did not affect protein-free liposomes”. For the same substance, the “membrane permeabilization of PgpB-liposomes” value (PgpB-liposomes) was “no permeabilization effect”, the “crosslinked complex band with BacAef (SDS-PAGE, western blot)” value (BacAef [6]) was “two faint bands appeared above the BacA monomer” and the n (BacAef E20A; 400 μM into [BacAef E20A] 33 μM) was 0.69 ± 0.01. For the same substance, the Kd (BacAef E20A; 400 μM into [BacAef E20A] 33 μM, pH 7.4, 0.1% DDM, at least triplicate) was 190 ± 40 nM, the “-TΔS” value (BacAef E20A; into [BacAef E20A]) was 13.0 kcal/mol and the ΔG (BacAef E20A; into [BacAef E20A]) was -9 kcal/mol. The ΔH (BacAef E20A; into [BacAef E20A]) was -22.0 kcal/mol, the n (BacAef S26A; 400 μM into [BacAef S26A] 33 μM) was 0.80 ± 0.02 and the Kd (BacAef S26A; 400 μM into [BacAef S26A] 33 μM, pH 7.4, 0.1% DDM, at least triplicate) was 439 ± 125 nM. The “-TΔS” value (BacAef S26A; into [BacAef S26A]) was 8.5 kcal/mol, the ΔG (BacAef S26A; into [BacAef S26A]) was -8.5 kcal/mol and the ΔH (BacAef S26A; into [BacAef S26A]) was -17.0 kcal/mol. For the same substance, the “melting temperature (Tm) of BacAef” value (BacAef [7]; 30-100 °C, Tris-HCl pH 7.5, 0.1% DDM, BacAef alone 66.3 °C) was 83.8 °C, the “enthalpy of denaturation (ΔH) of BacAef” value (BacAef [7]; BacAef alone 26.7 kcal/mol) was 83.7 kcal/mol and the “% of survival” value ([8]; 37 °C, BHI, CFU vs same cells without EntC, three independent experiments) was less than 1%. For the same substance, the cells killed ([8]; exponentially growing cells expressing wild-type BacAef) was “more than 99%”, the “% of survival” value [9] was 6.8% and 6.8 ± 2.4 ^c % and the “% of survival” value [10] was 7.8% and 7.8 ± 0.8 ^d %. The “% of survival” value [11] was 2.8 ± 1.0%, the “% of survival” value [12] was 11% and 11 ± 1.0 ^d % and the “% of survival” value [13] was 7.6 ± 1.0 ^e %. The “inhibition of BacAec C55-PP phosphatase activity” value (BacAec [14]) was “not inhibited”, the “rate of decrease of BCECF fluorescence” value (BacAef-liposomes) was “about 6.10^-4 sec^-1” and the “binding to BacAec (ITC)” value (BacAec [15]) was “no binding”. The “activity against E. faecalis” value (E. faecalis) was “active against the opportunistic pathogen E. faecalis”.

Source: paper PMC12765074, “Mechanistic insights into enterocin C targeting the undecaprenyl phosphate recycling protein BacA” (The Journal of Biological Chemistry, 2025)
